Experimental data taken from PMC12812009, “Optimization of 4‐Amino‐2‐Pyridone Inhibitors of Proprotein Convertase Subtilisin/Kexin Type 9: Integrating Structure–Activity and Structure–Metabolism Relationships” (Chemmedchem, 2025).

Legend:
secreted PCSK9 [1] = assay: PCSK9 secretion in culture medium, ELISA on HepG2 supernatants; assay type: cell-based, human; conditions: for decrease of secreted PCSK9 vs. basal: given as decrease; for IC50: HepG2, Table S2, ELISA, non-cytotoxic concentrations, read-out: IC50 ± SD on PCSK9 secreted by HepG2
Procedure: Next, the levels of secreted PCSK9 were quantified by ELISA assay (Figure 5) only on supernatants collected from cells treated with noncytotoxic concentrations of each compound, as reported in Table 1. Simvastatin (Simva) at 20 and 40 μM and berberine (BBR) at 10 μM were included as controls. As described in the literature, simvastatin induces PCSK9 expression as a compensatory mechanism in response to its cholesterol‐lowering effects, being a pharmacological competitor for HMG‐CoA reductase, the rate‐limiting enzyme of the cholesterol biosynthetic pathway.^[ [29] ^] In contrast, BBR, a natural compound, reduces the expression of PCSK9 levels through transcriptional inhibition, thus increasing the LDLR availability on plasma membrane.^[ [30] ^] As additional and distinct mechanism to the latter, BBR is also able to stabilize the transcript of LDLR, thus increasing its half‐life.^[ [31] ^] As expected, cells stimulated with simvastatin released more PCSK9 into the culture medium compared to unstimulated cells, with a statistically significant concentration‐dependent effect (+73% at 20 μM, p < 0.01; +200% at 40 μM, p < 0.0001), while BBR at 10 μM decreased PCSK9 levels in the medium more than 50% (p < 0.0001 vs. basal) (Figure 5).^[ [32] ^] The amount of PCSK9 secreted into the culture media was measured with an appropriate ELISA kit (R&D System, DY3888 and DY008B2) on the supernatants collected during the MTT assay. Every experimental condition was run in duplicate and the average PCSK9 secretion and standard deviation was calculated. A 4PL regression analysis was used to interpolate unknowns with the standard curve using GraphPad Prism v10.2, according to manufacturers’ instructions. The data were normalized onto the corresponding cell viability, and IC50 was then calculated using GraphPad Prism v10.2.

PCSK9 protein = assay: Western blot of PCSK9 protein levels in HepG2 cells; assay type: cell-based, human; conditions: 10 µM, HepG2, 24 h
Procedure: (§1) The third step of our functional assay was focused on the most promising compounds from the previous step (6b and 7), looking at the PCSK9 and LDLR protein expressions in HepG2 cells treated with increasing concentrations of the compounds (2.5–5–10 µM). This analysis, conducted in comparison with 5c using a Western blot assay, aimed to provide a more comprehensive understanding of the intracellular activity and efficacy of these novel PCSK9i , further supporting their potential for preclinical development. […] Importantly, LDLR protein levels were increased by compound 7 only at 10 µM (+39%, p < 0.01, Figure 6B) as compared to basal condition.
(§2) HepG2 cells were seeded at the cellular density of 500,000 cells/well in a 6‐well tray, in 2 mL of complete medium, and incubated as described above. The day after, treatments were prepared in starving medium. The cells were washed once with PBS and then incubated with media containing treatments. […] Total protein content was measured through bicinchoninic acid (BCA) assay (Euroclone, EMP014250), according to manufacturer's instructions. […] Immunobands were detected with Imager Alliance Q9 ATOM Supreme by UVITEC (Cambridge, UK) after 5 min of membranes incubation in the dark with ECL Star solution (EuroClone, EMP001005). Every experimental condition was run in triplicate and the average cell viability and standard deviation was calculated.

LDLR protein = assay: Western blot of LDLR protein levels in HepG2 cells; assay type: cell-based, human; conditions: HepG2, 24 h
Procedure: as §1, §2

secreted PCSK9 [2] = system: secreted PCSK9; design: method as in PMID 38160616; conditions: 5 µM; cited from earlier work
[3] = design: method as in PMID 38160616; conditions: seven days of daily subcutaneous administration; cited from earlier work
circulating PCSK9 = system: circulating PCSK9; design: method as in PMID 38160616; conditions: mice; cited from earlier work
[4] = Homo sapiens, 10 μM, HepG2, 24 h, read-out: secreted PCSK9 change vs. basal

Row | Structure (SMILES) | decrease of secreted PCSK9 vs. basal (secreted PCSK9 [1]; 10 μM, HepG2, 24 h) | decrease of secreted PCSK9 vs. basal (secreted PCSK9 [1]; 25 μM, HepG2, 24 h) | IC50 (secreted PCSK9 [1]; Homo sapiens) | inhibition at 10 µM (secreted PCSK9 [1]; [4]) | PCSK9 protein level change vs. basal (PCSK9 protein) | LDLR protein level change vs. basal (LDLR protein; 10 µM) | PCSK9 secretion from HepG2 cells (in words) (secreted PCSK9 [2]) | tolerability in mice (in words) [3] | circulating PCSK9 levels in vivo (in words) (circulating PCSK9) | inhibition at 5 µM (secreted PCSK9 [1]; Homo sapiens, 5 μM, HepG2, 24 h, read-out: secreted PCSK9 change vs. basal) | maximal reduction of PCSK9 protein levels vs. basal (PCSK9 protein) | LDLR expression (in words) (LDLR protein; 2.5–5–10 µM)
1 | Cc1cc2c(sc(=N)n2Cc2ccc(C(F)(F)F)cc2)c(=O)n1Cc1ccc(C(F)(F)F)cc1 [Compound 7, 2‐Imino‐6‐Methyl‐1,5‐Bis(4‐(Trifluoromethyl)benzyl)‐1,2‐Dihydrothiazolo[5,4‐c]pyridin‐4(5H)‐One] | 74% | 90% | 4100 ± 360 nM | 74% | −42% | +39% | – | – | – | – | – | –
2 | Cc1cc(NCc2ccc(C(F)(F)F)cc2)cc(=O)n1Cc1ccc(C(F)(F)F)cc1 [Compound 5c] | – | – | 1700 ± 670 nM | – | – | – | effectively reduced PCSK9 secretion | well tolerated | did not demonstrate a significant reduction in circulating PCSK9 levels | – | – | –
3 | Cc1cc(NCc2ccc(C(F)(F)F)cc2)c(Br)c(=O)n1Cc1ccc(C(F)(F)F)cc1 [Compound 6b, 3‐Bromo‐6‐Methyl‐1‐(4‐(Trifluoromethyl)Benzyl)‐4‐((4‐(Trifluoromethyl)Benzyl)Amino)pyridin‐2(1H)‐One] | – | – | 2600 ± 1610 nM | 90% | – | – | – | – | – | 75% | 93% | did not modulate its expression at all concentrations tested
